≈ marks a conversion by molar mass, not a printed value. Like-named read-outs stand apart in the source and are kept apart here. Bridge positions count the residues as written; N and C are the ends. Square brackets hold non-standard residues; d marks the D form. Peptide text beside a SMILES is read from it. * marks the point of attachment. Heptanoyl(6-Me) = CC(C)CCCCC(=O)*; Heptanoyl = CCCCCCC(=O)*; Octanoyl = CCCCCCCC(=O)*; Orn = NCCC[C@H](N)C(=O)O; Dab = NCC[C@H](N)C(=O)O; Dap = NC[C@H](N)C(=O)O
How the values were obtained:
Format in all cases: cell-based
[1] = Nephrotoxicity assay: in vitro cytotoxicity of HK-2 cells by CCK-8 assay; conditions: human, HK-2 cells (human renal), 72 h incubation with drug-containing medium
Summary of the method: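 HK-2 human renal cells in RPMI-1640 with 10% FBS were exposed to compounds at final 12.5–500 µg/mL for 72 h, then CCK-8 for 3 h and OD450 read. Viability was normalised to drug-free wells; IC50 came from logarithmic regression over three repeats, with polymyxin B as positive drug.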

[2] = tested on: Escherichia coli ATCC BAA-2340 (KPC)
Summary of the method: (§1)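 Colonies from 18-24 h plates were suspended to 0.5 McFarland and diluted in MH broth. Two-fold compound dilutions were then mixed 1:1 with inoculum to reach 64 to 0.03 mg/L and (2-4) × 10^5 CFU/mL. Plates were sealed and incubated at 35-37°C for 16-20 h, after which the MIC was read.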

[3] = tested on: Acinetobacter baumannii ABA19-1
Summary of the method: as §1

[4] = tested on: Pseudomonas aeruginosa ATCC 27853
Summary of the method: as §1

[5] = tested on: Klebsiella pneumoniae ATCC BAA-1705 (KPC)
Summary of the method: as §1

[6] = tested on: Acinetobacter baumannii NCTC 13304 (OXA-27)
Summary of the method: as §1

[7] = tested on: Escherichia coli ATCC BAA-2523
Summary of the method: as §1

[8] = tested on: Pseudomonas aeruginosa PAE19-3
Summary of the method: as §1

[9] = tested on: Klebsiella pneumoniae KPN+19-15
Summary of the method: as §1

| SMILES | IC50 at 72 h [1] [µg/mL] | MIC ([2]; ATCC BAA-2340) [µg/mL] | MIC ([3]; ABA19-1) [µg/mL] | MIC ([4]; ATCC 27853) [µg/mL] | MIC ([5]; ATCC BAA-1705) [µg/mL] | MIC ([6]; NCTC 13304) [µg/mL] | MIC ([7]; ATCC BAA-2523) [µg/mL] | MIC ([8]; PAE19-3) [µg/mL] | MIC ([9]; KPN+19-15) [µg/mL] | MIC ([2]; Escherichia coli ATCC BAA-2340 (KPC)) [µg/mL] | MIC ([3]; Acinetobacter baumannii ABA19-1) [µg/mL] | MIC ([4]; Pseudomonas aeruginosa ATCC27853) [µg/mL] | MIC ([5]; Klebsiella pneumoniae ATCC BAA-1705 (KPC)) [µg/mL] | MIC ([6]; Acinetobacter baumannii NCTC 13304 (OXA-27)) [µg/mL] | MIC ([7]; Escherichia coli ATCC BAA-2523) [µg/mL] | MIC ([8]; Pseudomonas aeruginosa PAE19-3) [µg/mL] | MIC ([9]; Klebsiella pneumoniae KPN 19-15) [µg/mL] |
| --- | --- | --- | --- | --- | --- | --- | --- | --- | --- | --- | --- | --- | --- | --- | --- | --- | --- |
| CCCCCCC(=O)N[C@@H](CCN)C(=O)N[C@H](C(=O)N[C@@H](CCCN)C(=O)N[C@H]1CCNC(=O)[C@H]([C@@H](C)O)NC(=O)[C@H](CCN)NC(=O)[C@H](CCN)NC(=O)[C@H]([C@@H](C)O)NC(=O)[C@@H](Cc2ccccc2)NC(=O)[C@H](CCN)NC1=O)[C@@H](C)O [Compound 29, Heptanoyl-Dab-Thr-Orn-ring(4-10)[Dab-Dab-D-Phe-Thr-Dab-Dab-Thr]] (Heptanoyl-[Dab]T[Orn][Dab][Dab][dF]T[Dab][Dab]T; lactam 4-C) | > 500 | 0.03 (≈ 0.0255 µM) | 0.125 (≈ 0.106 µM) | 0.03 (≈ 0.0255 µM) | 0.03 (≈ 0.0255 µM) | 0.06 (≈ 0.051 µM) | 0.03 (≈ 0.0255 µM) | 0.5 (≈ 0.425 µM) | 0.03 (≈ 0.0255 µM) | – | – | – | – | – | – | – | – |
| CCCCCCCC(=O)N[C@@H](CCN)C(=O)N[C@H](C(=O)N[C@@H](CCN)C(=O)N[C@H]1CCNC(=O)[C@H]([C@@H](C)O)NC(=O)[C@H](CCN)NC(=O)[C@H](CCN)NC(=O)[C@H]([C@@H](C)O)NC(=O)[C@@H](Cc2ccccc2)NC(=O)[C@H](CCN)NC1=O)[C@@H](C)O [Compound 18, Octanoyl-Dab-Thr-Dab-ring(4-10)[Dab-Dab-D-Phe-Thr-Dab-Dab-Thr]] (Octanoyl-[Dab]T[Dab][Dab][Dab][dF]T[Dab][Dab]T; lactam 4-C) | > 500 | 0.06 (≈ 0.051 µM) | 0.5 (≈ 0.425 µM) | 0.5 (≈ 0.425 µM) | 0.5 (≈ 0.425 µM) | 0.25 (≈ 0.212 µM) | ≤0.03 | 0.5 (≈ 0.425 µM) | ≤0.03 | – | – | – | – | – | – | – | – |
| CCCCCCCC(=O)N[C@@H](CCN)C(=O)N[C@H](C(=O)N[C@H](CO)C(=O)N[C@H]1CCNC(=O)[C@H]([C@@H](C)O)NC(=O)[C@H](CCN)NC(=O)[C@H](CCN)NC(=O)[C@H]([C@@H](C)O)NC(=O)[C@@H](Cc2ccccc2)NC(=O)[C@H](CCCN)NC1=O)[C@@H](C)O [Compound 68, Octanoyl-Dab-Thr-D-Ser-ring(4-10)[Dab-Orn-D-Phe-Thr-Dab-Dab-Thr]] (Octanoyl-[Dab]T[dS][Dab][Orn][dF]T[Dab][Dab]T; lactam 4-C) | > 500 | 0.25 (≈ 0.212 µM) | 0.25 (≈ 0.212 µM) | 64 (≈ 54.3 µM) | 0.25 (≈ 0.212 µM) | 0.25 (≈ 0.212 µM) | 0.25 (≈ 0.212 µM) | 4 (≈ 3.39 µM) | 0.5 (≈ 0.424 µM) | – | – | – | – | – | – | – | – |
| CCCCCCCC(=O)N[C@@H](CCN)C(=O)N[C@H](C(=O)N[C@@H](CN)C(=O)N[C@H]1CCNC(=O)[C@H]([C@@H](C)O)NC(=O)[C@H](CCN)NC(=O)[C@H](CCN)NC(=O)[C@H](CC(C)C)NC(=O)[C@@H](Cc2ccccc2)NC(=O)[C@H](CCN)NC1=O)[C@@H](C)O [Compound 38, Octanoyl-Dab-Thr-Dap-ring(4-10)[Dab-Dab-D-Phe-Leu-Dab-Dab-Thr]] (Octanoyl-[Dab]T[Dap][Dab][Dab][dF]L[Dab][Dab]T; lactam 4-C) | 219 ± 9.4 (≈ 186 µM) | – | – | – | – | – | – | – | – | 0.03 (≈ 0.0255 µM) | 0.03 (≈ 0.0255 µM) | 0.03 (≈ 0.0255 µM) | 0.03 (≈ 0.0255 µM) | 0.03 (≈ 0.0255 µM) | 0.03 (≈ 0.0255 µM) | 0.25 (≈ 0.213 µM) | 0.03 (≈ 0.0255 µM) |
| CCCCCCC(=O)N[C@@H](CCN)C(=O)N[C@H](C(=O)N[C@@H](CN)C(=O)N[C@H]1CCNC(=O)[C@H]([C@@H](C)O)NC(=O)[C@H](CCN)NC(=O)[C@H](CCN)NC(=O)[C@H]([C@@H](C)O)NC(=O)[C@@H](Cc2ccccc2)NC(=O)[C@H](CCN)NC1=O)[C@@H](C)O [Compound 9, Heptanoyl-Dab-Thr-Dap-ring(4-10)[Dab-Dab-D-Phe-Thr-Dab-Dab-Thr]] (Heptanoyl-[Dab]T[Dap][Dab][Dab][dF]T[Dab][Dab]T; lactam 4-C) | > 500 | 0.03 (≈ 0.0261 µM) | 0.03 (≈ 0.0261 µM) | 0.125 (≈ 0.109 µM) | 0.03 (≈ 0.0261 µM) | 0.03 (≈ 0.0261 µM) | 0.03 (≈ 0.0261 µM) | 0.25 (≈ 0.218 µM) | 0.03 (≈ 0.0261 µM) | – | – | – | – | – | – | – | – |
| CC(C)CCCCC(=O)N[C@@H](CCN)C(=O)N[C@H](C(=O)N[C@@H](CCCN)C(=O)N[C@H]1CCNC(=O)[C@H]([C@@H](C)O)NC(=O)[C@H](CCN)NC(=O)[C@H](CCN)NC(=O)[C@H]([C@@H](C)O)NC(=O)[C@@H](Cc2ccccc2)NC(=O)[C@H](CCN)NC1=O)[C@@H](C)O [Compound 27, 6-methylheptanoyl-Dab-Thr-Orn-ring(4-10)[Dab-Dab-D-Phe-Thr-Dab-Dab-Thr]] ({Heptanoyl(6-Me)}-[Dab]T[Orn][Dab][Dab][dF]T[Dab][Dab]T; lactam 4-C) | > 500 | ≤0.03 | 0.125 (≈ 0.105 µM) | ≤0.03 | ≤0.03 | 0.06 (≈ 0.0504 µM) | ≤0.03 | 0.25 (≈ 0.21 µM) | ≤0.03 | – | – | – | – | – | – | – | – |

Source: patent publication EP4725957A1, “GROUP OF CYCLIC ALKALINE LIPOPEPTIDE COMPOUNDS, AND PREPARATION METHOD THEREFOR AND USE THEREOF” (Institute of Medicinal Biotechnology, Chinese Academy of …, priority 2023, dated 2024)
